# Measurements from US8110703B2, “Retinoid derivative and pharmaceutical composition and use thereof” (Anhui Medical University, priority 2008, dated 2012).
# What was measured:
# Type in all cases: cell-based
# [1] = test system: liver cancer HepG2 cells; assay: MTT cell growth and proliferation experiment, HepG2; design: key to Inhibition Rate: (control OD570 − test OD570)/control OD570, as fraction; settings: 3 d; for OD Value (x ± s): HepG2, MTT OD 570 nm; for Inhibition Rate: HepG2, MTT, fraction
# Method: (§1) 1.1 Reagents 12 retinoic acid derivatives with the final concentrations of 1 ug/ml, 5 ug/ml and 10 ug/ml are synthesized by the Pharmaceutical College of Anhui Medical University using DMSO and anhydrous ethanol, separately packaged for storage at −20° C. and kept out of the light when used, and the final concentration of DMSO is less than 0.1%. MTT is purchased from Sigma Corp. The Coulter DNA detection kit is presented by the Central Lab of Anhui Provincial Hospital. AFP and γ-GT are provided by the Clinical Lab of No. 105 Hospital of PLA. Apoptosis-Hoechst staining kit is purchased from Beyotime Company.
# (§2) 1.2 Cell Culture A549, and HpeG2 cells are stored by our lab. Cell growth condition: DMEM (from GIBICO Company) culture solution is added with 10% of calf serum (purchased from the Hangzhou Sijiqing Biological Engineering Material Co., Ltd.) to culture in a cell culture incubator (37° C., 5% CO2) with saturated humidity.
# (§3) 1.3 Cell Growth and Proliferation Experiments MTT process is used. Cells in the logarithmic phase are picked and seeded on a 96-hole culture board with a cell concentration of 5×10^7/L. Each hole of the board is 200 ul. The next day after the adherence, the original solution is discarded, and the culture solution is added. The cells are divided into 1 ug/ml retinoic acid derivative groups, 5 ug/ml retinoic acid derivative groups, 10 ug/ml retinoic acid derivative groups, blank control groups, cell control groups, solvent control groups (1‰ DMSO and anhydrous ethanol) (17 in total) according to the concentrations thereof, incubated for 3d, added with MTT (5 g/L) of 20 ul/hole for incubation at 37° C. for 4 h. The original solution is carefully discarded and dried, and DMSO of 20 ul/hole is added to dissolve crystals, followed by vibrating for 10 min and determining the OD value at 570 nm. Each concentration is corresponding to 5 holes, and each group calculates the average of 3 experiments to calculate the inhibition rate to the cell growth according to the optical density (OD) average of each hole in each group and the following equation: inhibition rate %=(control hole OD570−experimental hole OD570)/control hole OD5700*100%. The process above is repeated for three times. The second experiment takes the maximum concentration (10 […]) for culture respectively for 1, 2, 3 and 7 days and repeat for three times.
# [2] = test system: A549 lung cancer cells; assay: MTT cell growth and proliferation experiment, A549; design: key to Inhibition Rate: (control OD570 − test OD570)/control OD570, as fraction; settings: 3 d; for OD Value (x ± s): A549, MTT OD 570 nm; for Inhibition Rate: A549, MTT, given as fraction
# Method: as §1, §2, §3
# [3] = test system: K562 cells; assay: Cell cycle analysis by flow cytometer, K562; design: S %: dose or concentration left out as unconfirmed; settings: 72 h
# Method: (§4) Retinoic acid derivatives and fenretinide are prepared as a storage solution of 10 mg/mL by anhydrous ethanol and stored at […] and kept out of light.
# (§5) NB4 cells and K562 cells are inoculated with an initial concentration of 2*10^5/ml in the RPMI1640 culture solution having 10% of calf serum (FBS), 100 u/ml of penicillin, 100 Lg/ml of streptomycin and 2 mmol/L of glutamine for suspension culture (37° C., 5% CO2). Change the solution every 2-3 days.
# (§6) For the cells above acted by the retinoic acid derivatives and fenretinide ([…]) for 72 h, about 10^6 of them are collected, washed by PBS twice, fixed by 70% of cold ethanol over 24 h, washed by PBS twice, added with 5 ug/ml of propidium iodide for staining and detected by a flow cytometer from which the data are analyzed and processed by the multi-cycle software.
# [4] = test system: NB4 cells; assay: Cell cycle analysis by flow cytometer, NB4; design: S %: dose or concentration left out as unconfirmed; settings: 72 h
# Method: as §4, §5, §6
Structure (SMILES),"OD Value (x ± s) ([1]; 1 ug/ml, solvent ethanol)","OD Value (x ± s) ([1]; 5 ug/ml, solvent ethanol)","OD Value (x ± s) ([1]; 10 ug/ml, solvent ethanol)","Inhibition Rate ([1]; 1 ug/ml, solvent ethanol)","Inhibition Rate ([1]; 5 ug/ml, solvent ethanol)","Inhibition Rate ([1]; 10 ug/ml, solvent ethanol)","OD Value (x ± s) ([2]; 1 ug/ml, solvent ethanol)","OD Value (x ± s) ([2]; 5 ug/ml, solvent ethanol)","OD Value (x ± s) ([2]; 10 ug/ml, solvent ethanol)","Inhibition Rate ([2]; 1 ug/ml, solvent ethanol)","Inhibition Rate ([2]; 5 ug/ml, solvent ethanol)","Inhibition Rate ([2]; 10 ug/ml, solvent ethanol)",G1 % [3],G2 % [3],S % [3],"OD Value (x ± s) ([2]; 1 ug/ml, solvent DMSO (D))","OD Value (x ± s) ([2]; 5 ug/ml, solvent DMSO (D))",G1 % [4],G2 % [4],S % [4],other results
"CC1=C(/C=C/C(C)=C/C=C/C(C)=C/C(=O)Oc2ccc(C(F)(F)F)cc2)C(C)(C)CCC1 [Example 2a-01, (4-trifluoromethylphenyl)-(all-trans)-3,7-dimethyl-9-(2,6,6-trimethyl-1-cyclohexen-1-yl)-2,4,6,8-nonatetraenoate]",1.38 ± 0.56,1.31 ± 0.57,1.30 ± 0.55,0.18,0.23,0.24,1.878 ± 0.158,1.487 ± 0.175,1.458 ± 0.066,−0.006,0.203,0.219,36.1%,12.5%,51.4%,–,–,–,–,–,–
"CC1=C(/C=C/C(C)=C/C=C/C(C)=C/C(=O)Oc2cccc(C(F)(F)F)c2)C(C)(C)CCC1 [Example 2a-02, (3-trifluoromethylphenyl)-(all-trans)-3,7-dimethyl-9-(2,6,6-trimethyl-1-cyclohexen-1-yl)-2,4,6,8-nonatetraenoate]",1.19 ± 0.52,1.13 ± 0.46,0.94 ± 0.49,0.29,0.33,0.45,–,–,–,–,–,–,35.4%,9.9%,54.6%,1.735 ± 0.048,1.621 ± 0.070,–,–,–,"OD Value (x ± s) ([2]; 10 ug/ml, solvent DMSO (D)): 1.580 ± 0.207; Inhibition Rate ([2]; 1 ug/ml, solvent DMSO (D)): 0.070; Inhibition Rate ([2]; 5 ug/ml, solvent DMSO (D)): 0.131; Inhibition Rate ([2]; 10 ug/ml, solvent DMSO (D)): 0.144"
"CC1=C(/C=C/C(C)=C/C=C/C(C)=C/C(=O)Oc2ccc(N)c(C(F)(F)F)c2)C(C)(C)CCC1 [Example 4a-01, (4-amino-3-trifluoromethylphenyl)-(all-trans)-3,7-dimethyl-9-(2,6,6-trimethyl-1-cyclohexen-1-yl)-2,4,6,8-nonatetraenoate]",–,–,–,–,–,–,–,–,–,–,–,–,39.1%,6.9%,53.9%,–,–,59.15%,7.07%,33.78%,"OD Value (x ± s) ([1]; 1 ug/ml, solvent not given): 1.72 ± 0.44; OD Value (x ± s) ([1]; 5 ug/ml, solvent not given): 1.63 ± 0.36; OD Value (x ± s) ([1]; 10 ug/ml, solvent not given): 1.57 ± 0.30; Inhibition Rate ([1]; 1 ug/ml, solvent not given): −0.009; Inhibition Rate ([1]; 5 ug/ml, solvent not given): 0.04; Inhibition Rate ([1]; 10 ug/ml, solvent not given): 0.07"
"CC1=C(/C=C/C(C)=C/C=C/C(C)=C/C(=O)Oc2ccc(OC(F)(F)F)cc2)C(C)(C)CCC1 [Example 5a-01, (4-trifluoromethoxyphenyl)-(all-trans)-3,7-dimethyl-9-(2,6,6-trimethyl-1-cyclohexen-1-yl)-2,4,6,8-nonatetraenoate]",1.57 ± 0.39,1.51 ± 0.30,1.49 ± 0.23,0.07,0.11,0.12,1.962 ± 0.225,1.754 ± 0.138,1.732 ± 0.317,−0.051,0.060,0.072,32.6%,12.5%,55.0%,–,–,59.28%,4.98%,35.74%,–
"CC1=C(/C=C/C(C)=C/C=C/C(C)=C/C(=O)Oc2cccc(OC(F)(F)F)c2)C(C)(C)CCC1 [Example 5a-02, (3-trifluoromethoxyphenyl)-(all-trans)-3,7-dimethyl-9-(2,6,6-trimethyl-1-cyclohexen-1-yl)-2,4,6,8-nonatetraenoate]",1.27 ± 0.44,1.13 ± 0.47,1.11 ± 0.61,0.25,0.33,0.35,–,–,–,–,–,–,38.2%,7.7%,54.2%,1.843 ± 0.179,1.817 ± 0.142,60.06%,4.91%,35.03%,"OD Value (x ± s) ([2]; 10 ug/ml, solvent DMSO (D)): 1.689 ± 0.154; Inhibition Rate ([2]; 1 ug/ml, solvent DMSO (D)): 0.012; Inhibition Rate ([2]; 5 ug/ml, solvent DMSO (D)): 0.027; Inhibition Rate ([2]; 10 ug/ml, solvent DMSO (D)): 0.095"
